Results from ChEMBL document CHEMBL5653615 (J Biol Chem, 2013).

What was measured:
[1] = molecular target: T1, Serine/threonine-protein kinase Sgk1 (Homo sapiens) (UniProt O00141); test: Inhibition of human SGK1 at 500 nM by HotSpot assay relative to control
T1 sequence (whole entry): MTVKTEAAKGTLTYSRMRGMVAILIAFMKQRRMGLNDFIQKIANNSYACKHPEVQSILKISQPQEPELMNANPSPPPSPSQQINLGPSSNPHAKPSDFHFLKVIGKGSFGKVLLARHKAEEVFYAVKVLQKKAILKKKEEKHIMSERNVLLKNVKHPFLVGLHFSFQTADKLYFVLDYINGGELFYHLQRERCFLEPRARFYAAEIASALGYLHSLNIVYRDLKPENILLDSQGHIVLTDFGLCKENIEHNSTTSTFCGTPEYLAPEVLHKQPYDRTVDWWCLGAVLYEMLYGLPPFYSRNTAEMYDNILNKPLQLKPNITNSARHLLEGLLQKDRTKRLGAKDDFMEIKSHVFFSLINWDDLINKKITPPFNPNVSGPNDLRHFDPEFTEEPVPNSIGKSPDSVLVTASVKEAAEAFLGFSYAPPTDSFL

[2] = molecular target: Receptor tyrosine-protein kinase erbB-2 (Homo sapiens) (UniProt P04626); test: Inhibition of human ERBB2 at 500 nM by HotSpot assay relative to control
Chain of Receptor tyrosine-protein kinase erbB-2 (Homo sapiens) (P04626 whole entry): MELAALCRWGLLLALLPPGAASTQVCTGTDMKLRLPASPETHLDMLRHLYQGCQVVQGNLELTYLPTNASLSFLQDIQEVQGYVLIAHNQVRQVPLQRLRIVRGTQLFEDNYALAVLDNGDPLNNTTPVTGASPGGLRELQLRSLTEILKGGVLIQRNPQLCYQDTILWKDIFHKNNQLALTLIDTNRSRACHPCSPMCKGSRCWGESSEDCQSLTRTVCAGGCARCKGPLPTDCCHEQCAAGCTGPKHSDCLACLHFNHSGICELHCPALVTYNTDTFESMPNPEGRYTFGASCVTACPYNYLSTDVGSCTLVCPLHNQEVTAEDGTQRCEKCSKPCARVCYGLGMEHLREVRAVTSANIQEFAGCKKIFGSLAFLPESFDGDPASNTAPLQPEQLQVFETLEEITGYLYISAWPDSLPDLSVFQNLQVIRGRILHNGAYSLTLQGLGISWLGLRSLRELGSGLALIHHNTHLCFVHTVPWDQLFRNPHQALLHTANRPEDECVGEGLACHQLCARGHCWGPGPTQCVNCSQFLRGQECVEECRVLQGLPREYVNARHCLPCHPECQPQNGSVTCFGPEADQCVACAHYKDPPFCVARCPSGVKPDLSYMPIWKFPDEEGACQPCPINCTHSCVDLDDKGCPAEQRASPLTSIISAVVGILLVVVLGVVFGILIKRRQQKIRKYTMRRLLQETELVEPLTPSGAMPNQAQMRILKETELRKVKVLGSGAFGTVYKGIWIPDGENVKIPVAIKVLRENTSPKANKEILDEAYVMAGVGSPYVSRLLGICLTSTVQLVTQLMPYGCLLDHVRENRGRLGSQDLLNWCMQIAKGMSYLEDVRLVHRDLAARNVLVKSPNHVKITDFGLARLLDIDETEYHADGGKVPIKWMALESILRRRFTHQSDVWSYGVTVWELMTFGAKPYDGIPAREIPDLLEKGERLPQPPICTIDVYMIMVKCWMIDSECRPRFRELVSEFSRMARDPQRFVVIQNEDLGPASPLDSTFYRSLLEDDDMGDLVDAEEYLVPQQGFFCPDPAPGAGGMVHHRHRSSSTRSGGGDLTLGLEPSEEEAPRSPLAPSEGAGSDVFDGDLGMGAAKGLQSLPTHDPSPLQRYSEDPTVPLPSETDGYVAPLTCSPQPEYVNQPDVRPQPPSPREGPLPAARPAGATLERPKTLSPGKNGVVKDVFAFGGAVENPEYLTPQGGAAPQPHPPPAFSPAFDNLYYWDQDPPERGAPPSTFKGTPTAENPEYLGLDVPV

[3] = molecular target: Vascular endothelial growth factor receptor 3 (Homo sapiens) (UniProt P35916); test: Inhibition of human FLT4 at 500 nM by HotSpot assay relative to control
Chain of Vascular endothelial growth factor receptor 3 (Homo sapiens) (P35916 whole entry): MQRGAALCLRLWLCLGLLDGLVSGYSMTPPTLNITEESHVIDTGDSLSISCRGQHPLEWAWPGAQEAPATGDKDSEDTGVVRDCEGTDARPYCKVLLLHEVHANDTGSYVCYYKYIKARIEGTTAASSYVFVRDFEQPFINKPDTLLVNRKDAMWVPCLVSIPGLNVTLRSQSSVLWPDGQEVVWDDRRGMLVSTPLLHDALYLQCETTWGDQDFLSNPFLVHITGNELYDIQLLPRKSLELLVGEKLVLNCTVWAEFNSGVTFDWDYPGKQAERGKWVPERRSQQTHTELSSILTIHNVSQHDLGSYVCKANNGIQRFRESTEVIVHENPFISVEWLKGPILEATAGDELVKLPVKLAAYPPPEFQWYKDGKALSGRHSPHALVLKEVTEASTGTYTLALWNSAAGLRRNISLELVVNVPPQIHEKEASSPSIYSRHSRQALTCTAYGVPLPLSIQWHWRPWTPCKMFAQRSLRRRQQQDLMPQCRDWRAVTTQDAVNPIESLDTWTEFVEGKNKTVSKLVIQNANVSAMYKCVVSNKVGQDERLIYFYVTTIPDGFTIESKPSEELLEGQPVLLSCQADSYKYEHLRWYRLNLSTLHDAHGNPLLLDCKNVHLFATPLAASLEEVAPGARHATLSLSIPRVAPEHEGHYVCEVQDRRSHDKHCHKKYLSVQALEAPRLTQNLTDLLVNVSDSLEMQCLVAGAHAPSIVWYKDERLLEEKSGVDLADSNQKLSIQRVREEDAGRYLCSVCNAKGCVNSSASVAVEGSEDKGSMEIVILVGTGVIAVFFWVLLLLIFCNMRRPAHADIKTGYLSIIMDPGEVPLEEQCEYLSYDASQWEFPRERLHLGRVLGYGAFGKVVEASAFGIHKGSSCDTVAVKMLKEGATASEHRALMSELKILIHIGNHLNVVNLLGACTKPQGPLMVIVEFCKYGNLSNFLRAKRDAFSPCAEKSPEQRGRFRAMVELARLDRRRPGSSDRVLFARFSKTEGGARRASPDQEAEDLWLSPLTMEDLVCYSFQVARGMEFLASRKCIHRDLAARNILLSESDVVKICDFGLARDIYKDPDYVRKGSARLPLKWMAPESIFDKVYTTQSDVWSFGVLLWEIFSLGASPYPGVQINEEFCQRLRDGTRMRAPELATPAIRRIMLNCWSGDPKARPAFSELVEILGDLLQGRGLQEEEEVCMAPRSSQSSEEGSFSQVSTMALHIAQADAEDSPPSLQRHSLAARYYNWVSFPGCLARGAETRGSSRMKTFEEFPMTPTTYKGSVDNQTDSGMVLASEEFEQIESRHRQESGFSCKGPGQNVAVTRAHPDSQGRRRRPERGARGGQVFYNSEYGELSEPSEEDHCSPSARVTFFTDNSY

[4] = molecular target: T2, Serine/threonine-protein kinase D3 (Homo sapiens) (UniProt O94806); test: Inhibition of human PRKD3 at 500 nM by HotSpot assay relative to control
T2 sequence (whole entry): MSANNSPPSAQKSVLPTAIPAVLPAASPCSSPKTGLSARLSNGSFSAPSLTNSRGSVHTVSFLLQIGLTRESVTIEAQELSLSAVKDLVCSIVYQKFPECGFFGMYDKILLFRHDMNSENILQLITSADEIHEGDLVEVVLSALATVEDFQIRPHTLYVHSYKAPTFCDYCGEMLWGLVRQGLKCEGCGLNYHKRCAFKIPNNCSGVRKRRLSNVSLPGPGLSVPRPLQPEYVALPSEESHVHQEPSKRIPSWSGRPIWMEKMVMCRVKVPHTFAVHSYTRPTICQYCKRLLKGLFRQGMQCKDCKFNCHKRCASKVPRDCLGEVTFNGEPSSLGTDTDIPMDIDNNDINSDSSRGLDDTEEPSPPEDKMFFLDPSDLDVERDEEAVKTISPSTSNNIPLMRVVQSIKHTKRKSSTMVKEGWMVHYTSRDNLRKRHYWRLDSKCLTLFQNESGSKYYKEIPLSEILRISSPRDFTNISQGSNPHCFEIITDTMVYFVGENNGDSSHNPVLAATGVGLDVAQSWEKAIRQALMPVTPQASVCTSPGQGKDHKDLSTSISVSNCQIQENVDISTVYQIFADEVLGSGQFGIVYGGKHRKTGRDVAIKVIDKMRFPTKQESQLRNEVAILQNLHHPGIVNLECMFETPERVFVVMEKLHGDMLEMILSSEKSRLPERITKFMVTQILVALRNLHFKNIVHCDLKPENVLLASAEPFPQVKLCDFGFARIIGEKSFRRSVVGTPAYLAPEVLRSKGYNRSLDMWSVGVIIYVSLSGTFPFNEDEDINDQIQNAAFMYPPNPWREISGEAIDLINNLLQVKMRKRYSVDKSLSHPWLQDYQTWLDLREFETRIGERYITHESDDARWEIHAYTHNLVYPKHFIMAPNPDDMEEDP

[5] = molecular target: BDNF/NT-3 growth factors receptor (Homo sapiens) (UniProt Q16620); test: Inhibition of human TRKB at 500 nM by HotSpot assay relative to control
Chain of BDNF/NT-3 growth factors receptor (Homo sapiens) (Q16620 32-822 limits assumed): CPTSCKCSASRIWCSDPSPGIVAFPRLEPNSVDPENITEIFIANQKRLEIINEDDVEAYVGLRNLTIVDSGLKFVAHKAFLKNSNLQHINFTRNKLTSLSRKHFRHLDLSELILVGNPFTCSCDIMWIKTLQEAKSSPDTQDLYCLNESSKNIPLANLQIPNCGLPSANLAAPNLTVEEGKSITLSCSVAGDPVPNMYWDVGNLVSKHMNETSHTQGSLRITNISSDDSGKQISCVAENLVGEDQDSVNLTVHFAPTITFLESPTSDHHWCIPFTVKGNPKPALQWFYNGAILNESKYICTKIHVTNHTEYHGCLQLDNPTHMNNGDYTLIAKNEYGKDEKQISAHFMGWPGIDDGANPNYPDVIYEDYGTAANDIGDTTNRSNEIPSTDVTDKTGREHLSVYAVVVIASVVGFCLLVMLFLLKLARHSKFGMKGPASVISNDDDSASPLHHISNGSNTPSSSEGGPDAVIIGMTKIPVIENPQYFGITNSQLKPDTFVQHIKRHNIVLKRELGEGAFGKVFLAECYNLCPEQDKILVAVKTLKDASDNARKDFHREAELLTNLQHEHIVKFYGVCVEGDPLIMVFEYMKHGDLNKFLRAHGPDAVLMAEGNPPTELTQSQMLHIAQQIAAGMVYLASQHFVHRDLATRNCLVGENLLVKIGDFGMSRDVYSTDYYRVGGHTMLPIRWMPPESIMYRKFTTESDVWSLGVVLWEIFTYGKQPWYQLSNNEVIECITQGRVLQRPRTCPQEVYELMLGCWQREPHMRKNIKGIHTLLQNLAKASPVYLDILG

[6] = molecular target: T3, Ephrin type-A receptor 8 (Homo sapiens) (UniProt P29322); test: Inhibition of human EPHA8 at 500 nM by HotSpot assay relative to control
T3 sequence (whole entry): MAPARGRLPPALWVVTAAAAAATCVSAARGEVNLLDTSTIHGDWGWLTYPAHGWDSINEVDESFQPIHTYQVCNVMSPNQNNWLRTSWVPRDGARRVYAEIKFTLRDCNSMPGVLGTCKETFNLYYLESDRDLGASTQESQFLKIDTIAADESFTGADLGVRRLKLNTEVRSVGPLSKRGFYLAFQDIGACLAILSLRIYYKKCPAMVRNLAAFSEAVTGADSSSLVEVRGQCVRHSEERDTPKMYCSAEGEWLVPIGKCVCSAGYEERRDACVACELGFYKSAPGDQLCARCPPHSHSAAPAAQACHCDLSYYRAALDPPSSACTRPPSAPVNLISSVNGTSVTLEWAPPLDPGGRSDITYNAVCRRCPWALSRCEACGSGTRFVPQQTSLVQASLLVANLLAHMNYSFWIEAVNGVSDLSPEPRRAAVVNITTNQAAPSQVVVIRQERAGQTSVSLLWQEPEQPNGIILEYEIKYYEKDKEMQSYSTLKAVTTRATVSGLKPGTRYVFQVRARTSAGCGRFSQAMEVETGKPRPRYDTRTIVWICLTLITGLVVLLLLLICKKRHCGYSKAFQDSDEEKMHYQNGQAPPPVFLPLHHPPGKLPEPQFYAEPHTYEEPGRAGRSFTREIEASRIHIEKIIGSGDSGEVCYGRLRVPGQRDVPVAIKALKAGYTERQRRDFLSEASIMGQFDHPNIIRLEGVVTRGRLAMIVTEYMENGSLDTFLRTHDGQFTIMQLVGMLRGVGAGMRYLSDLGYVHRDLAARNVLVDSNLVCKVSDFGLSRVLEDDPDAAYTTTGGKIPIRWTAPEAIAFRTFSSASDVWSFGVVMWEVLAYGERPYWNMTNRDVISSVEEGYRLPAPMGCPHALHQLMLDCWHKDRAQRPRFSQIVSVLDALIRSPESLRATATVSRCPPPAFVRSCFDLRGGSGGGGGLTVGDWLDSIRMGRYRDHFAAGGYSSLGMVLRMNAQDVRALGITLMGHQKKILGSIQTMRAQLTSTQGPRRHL

[7] = molecular target: SRSF protein kinase 3 (Homo sapiens) (UniProt Q9UPE1); test: Inhibition of human STK23 at 500 nM by HotSpot assay relative to control
Chain of SRSF protein kinase 3 (Homo sapiens) (Q9UPE1 whole entry): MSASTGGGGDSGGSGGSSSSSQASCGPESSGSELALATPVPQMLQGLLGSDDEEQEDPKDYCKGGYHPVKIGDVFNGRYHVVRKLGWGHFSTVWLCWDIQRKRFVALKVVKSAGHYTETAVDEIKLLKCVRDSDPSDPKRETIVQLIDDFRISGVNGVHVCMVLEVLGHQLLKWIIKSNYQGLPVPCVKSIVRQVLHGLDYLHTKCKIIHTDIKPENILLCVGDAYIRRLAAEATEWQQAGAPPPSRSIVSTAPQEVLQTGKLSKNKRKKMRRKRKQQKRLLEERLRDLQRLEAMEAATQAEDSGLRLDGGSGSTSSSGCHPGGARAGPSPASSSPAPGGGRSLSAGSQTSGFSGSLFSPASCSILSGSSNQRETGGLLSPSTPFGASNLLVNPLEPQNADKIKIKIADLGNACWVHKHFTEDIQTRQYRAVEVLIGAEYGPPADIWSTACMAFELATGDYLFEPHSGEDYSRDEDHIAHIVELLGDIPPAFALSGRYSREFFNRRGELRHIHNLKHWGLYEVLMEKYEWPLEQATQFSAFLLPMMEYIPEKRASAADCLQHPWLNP

## Nc1n[nH]c2nnc(-c3c(-c4ccccc4)nn4ccccc34)cc12
[1]
  inhibition: 0.11%
[2]
  inhibition: -4.95%
[3]
  inhibition: 10.1%
[4]
  inhibition: 41.1%
[5]
  inhibition: 10.3%
[6]
  inhibition: -0.31%
[7]
  inhibition: 11.2%

## Oc1n[nH]c2nnc(-c3c(-c4ccccc4)nn4ccccc34)cc12
[1]
  inhibition: -4.65%
[2]
  inhibition: -4.85%
[3]
  inhibition: 0.44%
[4]
  inhibition: 1.12%
[5]
  inhibition: 2.59%
[6]
  inhibition: -2.05%
[7]
  inhibition: 0.76%
